The supplement of paper PMC10307832

compound: COc1cccc2cc(-c3nc([C@H]4CC[C@H](C(=O)O)CC4)n4ncnc(N)c34)[nH]c12 [OSI-027] + Cc1cc(Nc2cc(N3CCN(C)CC3)nc(Sc3ccc(NC(=O)C4CC4)cc3)n2)n[nH]1 [Tozasertib] (partner 0.1 µM); test: relative viability (nuclei count vs DMSO), 5 days (fraction); higher = more cells survive; conditions: first compound 0.01 µM
Method in brief: (§1)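 Each reported value is a median over duplicate plates. It expresses relative viability: treated-well nuclei count divided by vehicle-well nuclei count. Lung cancer cell lines in 1536-well plates were dosed by pin tool a day after seeding, alone with one drug or with a fixed anchor-drug dose plus five library-drug doses (not always all listed) in √10 steps, and nuclei were counted after 5 days.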

Row | Cell Line | relative viability
1 | NCI-H322M | 0.488
2 | NCI-H596 | 0.999
3 | 201T | 1

same assay, conditions: first compound 0.03162 µM

Row | Cell Line | relative viability
4 | NCI-H2087 | 0.254
5 | NCI-H1734 | 0.271
6 | LCLC-103H | 0.424
7 | LU99A | 0.302
8 | NCI-H460 | 0.338
9 | NCI-H2170 | 0.658
10 | SK-LU-1 | 0.331
11 | NCI-H522 | 0.625
12 | COR-L23 | 0.185
13 | HCC-15 | 0.4
14 | NCI-H1944 | 0.251
15 | EMC-BAC-2 | 0.284
16 | NCI-H1395 | 0.718
17 | LC-2-ad | 0.4
18 | NCI-H2085 | 0.654
19 | NCI-H647 | 0.291
20 | HARA | 0.099

Row | Cell Line | relative viability
21 | NCI-H3122 | 0.38
22 | NCI-H358 | 0.0898
23 | CAL-12T | 0.287
24 | COR-L 105 | 0.336
25 | LCLC-97TM1 | 0.192
26 | NCI-H520 | 0.385
27 | NCI-H2228 | 0.242
28 | NCI-H23 | 0.269
29 | HCC-827 | 0.478
30 | NCI-H2347 | 0.467
31 | LXF-289 | 0.209
32 | NCI-H1666 | 0.686
33 | RERF-LC-KJ | 0.531
34 | NCI-H650 | 0.738
35 | NCI-H322M | 0.485
36 | NCI-H596 | 0.804
37 | 201T | 0.96

same assay, conditions: first compound 0.1 µM

Row | Cell Line | relative viability
38 | NCI-H2087 | 0.257
39 | NCI-H1734 | 0.265
40 | LCLC-103H | 0.489
41 | LU99A | 0.252
42 | NCI-H460 | 0.469
43 | NCI-H2170 | 0.603
44 | SK-LU-1 | 0.303
45 | NCI-H522 | 0.524
46 | COR-L23 | 0.237
47 | HCC-15 | 0.429
48 | NCI-H1944 | 0.22
49 | EMC-BAC-2 | 0.254
50 | NCI-H1395 | 0.683
51 | LC-2-ad | 0.449
52 | NCI-H2085 | 0.741
53 | NCI-H647 | 0.292
54 | HARA | 0.115

Row | Cell Line | relative viability
55 | NCI-H3122 | 0.385
56 | NCI-H358 | 0.0968
57 | CAL-12T | 0.317
58 | COR-L 105 | 0.374
59 | LCLC-97TM1 | 0.228
60 | NCI-H520 | 0.396
61 | NCI-H2228 | 0.242
62 | NCI-H23 | 0.34
63 | HCC-827 | 0.456
64 | NCI-H2347 | 0.58
65 | LXF-289 | 0.201
66 | NCI-H1666 | 0.646
67 | RERF-LC-KJ | 0.477
68 | NCI-H650 | 0.637
69 | NCI-H322M | 0.413
70 | NCI-H596 | 0.859
71 | 201T | 0.946

same assay, conditions: first compound 0.3162 µM

Row | Cell Line | relative viability
72 | NCI-H2087 | 0.234
73 | NCI-H1734 | 0.222
74 | LCLC-103H | 0.44
75 | LU99A | 0.239
76 | NCI-H460 | 0.593
77 | NCI-H2170 | 0.733
78 | SK-LU-1 | 0.248
79 | NCI-H522 | 0.522
80 | COR-L23 | 0.287
81 | HCC-15 | 0.414
82 | NCI-H1944 | 0.221
83 | EMC-BAC-2 | 0.287
84 | NCI-H1395 | 0.67
85 | LC-2-ad | 0.443
86 | NCI-H2085 | 0.784
87 | NCI-H647 | 0.433
88 | HARA | 0.0843

Row | Cell Line | relative viability
89 | NCI-H3122 | 0.434
90 | NCI-H358 | 0.0931
91 | CAL-12T | 0.294
92 | COR-L 105 | 0.371
93 | LCLC-97TM1 | 0.18
94 | NCI-H520 | 0.339
95 | NCI-H2228 | 0.207
96 | NCI-H23 | 0.413
97 | HCC-827 | 0.343
98 | NCI-H2347 | 0.564
99 | LXF-289 | 0.195
100 | NCI-H1666 | 0.629
101 | RERF-LC-KJ | 0.468
102 | NCI-H650 | 0.605
103 | NCI-H322M | 0.397
104 | NCI-H596 | 0.811
105 | 201T | 0.914

same assay, conditions: first compound 1 µM

Row | Cell Line | relative viability
106 | NCI-H2087 | 0.188
107 | NCI-H1734 | 0.24
108 | LCLC-103H | 0.333
109 | LU99A | 0.175
110 | NCI-H460 | 0.278
111 | NCI-H2170 | 0.435
112 | SK-LU-1 | 0.241
113 | NCI-H522 | 0.431
114 | COR-L23 | 0.19
115 | HCC-15 | 0.266
116 | NCI-H1944 | 0.175
117 | EMC-BAC-2 | 0.24
118 | NCI-H1395 | 0.611
119 | LC-2-ad | 0.397
120 | NCI-H2085 | 0.568
121 | NCI-H647 | 0.147
122 | HARA | 0.106

Row | Cell Line | relative viability
123 | NCI-H3122 | 0.287
124 | NCI-H358 | 0.0733
125 | CAL-12T | 0.212
126 | COR-L 105 | 0.411
127 | LCLC-97TM1 | 0.0982
128 | NCI-H520 | 0.193
129 | NCI-H2228 | 0.16
130 | NCI-H23 | 0.306
131 | HCC-827 | 0.363
132 | NCI-H2347 | 0.317
133 | LXF-289 | 0.133
134 | NCI-H1666 | 0.537
135 | RERF-LC-KJ | 0.385
136 | NCI-H650 | 0.411
137 | NCI-H322M | 0.307
138 | NCI-H596 | 0.47
139 | 201T | 0.736

compound: COc1cccc2cc(-c3nc([C@H]4CC[C@H](C(=O)O)CC4)n4ncnc(N)c34)[nH]c12 [OSI-027] + O=C(CCCCCCC(=O)Nc1ccccc1)NO [Vorinostat] (partner 1 µM); test: as above; conditions: first compound 0.01 µM
Method in brief: as §1

Row | Cell Line | relative viability
140 | NCI-H2087 | 0.971
141 | NCI-H1734 | 0.912
142 | LCLC-103H | 0.781
143 | LU99A | 0.491
144 | NCI-H460 | 1.06
145 | NCI-H2170 | 0.779
146 | SK-LU-1 | 0.809
147 | NCI-H522 | 0.768
148 | COR-L23 | 0.524
149 | HCC-15 | 0.835
150 | NCI-H1944 | 0.571
151 | EMC-BAC-2 | 0.333
152 | NCI-H1395 | 0.633
153 | LC-2-ad | 0.718
154 | NCI-H2085 | 0.714
155 | NCI-H647 | 0.656
156 | HARA | 0.581
157 | NCI-H3122 | 0.991
158 | NCI-H358 | 0.751
159 | CAL-12T | 1.06
